# Reference: patent US20240383905A1, “FGFR INHIBITORS AND METHODS OF USE THEREOF” (3H PHARMACEUTICALS CO., LTD., priority 2021, published 2024)
# Assays:
# [1] = target: T1, FGFR1 (Homo sapiens, UniProt P11362); test: FGFR1 Biochemical Caliper Assay (KinEASE-TK kit); details: ratio FGFR1/FGFR2 of the biochemical assay
# T1 construct: purchased Carna 08-133
# Outline: (§1)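 KinEASE-TK HTRF readout: enzyme at 0.2 nM (FGFR1, FGFR3) preincubated 10 min at RT with 10-point 3-fold compound dilutions before TK-substrate/ATP start.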
# [2] = target: T2, FGFR2 (Homo sapiens, UniProt P21802); test: FGFR2 Biochemical Caliper Assay (KinEASE-TK kit); details: 0.07 nM FGFR2; compound incubated with protein 10 min, reaction 45 min at RT; read-out: FGFR2 Cliper IC50
# T2 construct: purchased Carna 08-134
# T2 sequence (P21802 22-821): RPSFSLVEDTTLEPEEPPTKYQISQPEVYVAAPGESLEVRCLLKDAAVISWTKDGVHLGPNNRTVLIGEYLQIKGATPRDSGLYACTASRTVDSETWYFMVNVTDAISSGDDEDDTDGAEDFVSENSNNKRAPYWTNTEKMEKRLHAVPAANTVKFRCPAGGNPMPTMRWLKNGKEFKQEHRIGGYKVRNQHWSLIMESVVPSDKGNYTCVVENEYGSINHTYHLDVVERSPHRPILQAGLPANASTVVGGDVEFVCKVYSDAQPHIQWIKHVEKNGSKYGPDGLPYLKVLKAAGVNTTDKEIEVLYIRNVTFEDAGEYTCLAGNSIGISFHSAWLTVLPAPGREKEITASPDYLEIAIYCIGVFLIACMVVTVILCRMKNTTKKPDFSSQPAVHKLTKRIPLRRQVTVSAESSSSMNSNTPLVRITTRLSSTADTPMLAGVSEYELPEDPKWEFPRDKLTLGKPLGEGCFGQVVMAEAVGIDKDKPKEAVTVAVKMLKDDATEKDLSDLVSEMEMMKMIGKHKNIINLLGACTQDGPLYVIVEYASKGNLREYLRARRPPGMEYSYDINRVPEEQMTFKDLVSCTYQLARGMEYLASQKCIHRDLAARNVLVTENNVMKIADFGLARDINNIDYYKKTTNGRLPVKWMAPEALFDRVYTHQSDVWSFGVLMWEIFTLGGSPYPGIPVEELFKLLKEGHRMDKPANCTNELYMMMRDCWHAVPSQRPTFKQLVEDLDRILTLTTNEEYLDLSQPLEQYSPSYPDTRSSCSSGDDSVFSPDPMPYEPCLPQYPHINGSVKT
# [3] = target: T3, FGFR3 (Homo sapiens, UniProt P22607); test: FGFR3 Biochemical Caliper Assay (KinEASE-TK kit); details: ratio FGFR3/FGFR2 of the biochemical assay
# T3 construct: purchased Carna 08-135
# T3 sequence (P22607 23-806): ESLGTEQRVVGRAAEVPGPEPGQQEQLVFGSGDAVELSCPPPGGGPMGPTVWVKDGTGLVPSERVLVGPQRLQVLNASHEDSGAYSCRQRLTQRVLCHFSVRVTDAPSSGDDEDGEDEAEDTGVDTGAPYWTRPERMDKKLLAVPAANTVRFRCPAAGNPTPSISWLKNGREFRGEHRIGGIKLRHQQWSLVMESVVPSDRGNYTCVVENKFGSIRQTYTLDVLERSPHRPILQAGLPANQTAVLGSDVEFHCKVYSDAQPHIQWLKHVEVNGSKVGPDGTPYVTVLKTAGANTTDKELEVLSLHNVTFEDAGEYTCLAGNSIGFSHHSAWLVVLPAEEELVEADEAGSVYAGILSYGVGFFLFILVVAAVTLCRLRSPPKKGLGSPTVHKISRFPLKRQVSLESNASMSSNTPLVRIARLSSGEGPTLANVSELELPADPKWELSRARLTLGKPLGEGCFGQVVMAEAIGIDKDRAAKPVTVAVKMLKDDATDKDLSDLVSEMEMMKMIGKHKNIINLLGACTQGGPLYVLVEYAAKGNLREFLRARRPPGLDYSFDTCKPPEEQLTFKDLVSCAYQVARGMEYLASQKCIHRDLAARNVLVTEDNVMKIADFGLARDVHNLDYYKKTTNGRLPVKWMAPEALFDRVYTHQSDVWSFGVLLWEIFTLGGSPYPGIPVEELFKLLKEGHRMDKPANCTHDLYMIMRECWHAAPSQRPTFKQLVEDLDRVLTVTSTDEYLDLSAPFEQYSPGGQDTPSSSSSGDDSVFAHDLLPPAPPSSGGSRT
# Outline: as §1
# [4] = tested on: SNU16 cells; test: SNU16 Cancer Cell Line Proliferation Assay (CellTiter-Glo); type: cell-based; details: Homo sapiens, SNU-16, 72 h
# Outline: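 SNU16 cells at 5000/well exposed to 9-point 3-fold serial compound dilutions (DMSO control) for 72 h at 37 °C, 5% CO2. Viability read by luminescence; IC50 calculated from dose-response.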
# T1 sequence (P11362 22-822): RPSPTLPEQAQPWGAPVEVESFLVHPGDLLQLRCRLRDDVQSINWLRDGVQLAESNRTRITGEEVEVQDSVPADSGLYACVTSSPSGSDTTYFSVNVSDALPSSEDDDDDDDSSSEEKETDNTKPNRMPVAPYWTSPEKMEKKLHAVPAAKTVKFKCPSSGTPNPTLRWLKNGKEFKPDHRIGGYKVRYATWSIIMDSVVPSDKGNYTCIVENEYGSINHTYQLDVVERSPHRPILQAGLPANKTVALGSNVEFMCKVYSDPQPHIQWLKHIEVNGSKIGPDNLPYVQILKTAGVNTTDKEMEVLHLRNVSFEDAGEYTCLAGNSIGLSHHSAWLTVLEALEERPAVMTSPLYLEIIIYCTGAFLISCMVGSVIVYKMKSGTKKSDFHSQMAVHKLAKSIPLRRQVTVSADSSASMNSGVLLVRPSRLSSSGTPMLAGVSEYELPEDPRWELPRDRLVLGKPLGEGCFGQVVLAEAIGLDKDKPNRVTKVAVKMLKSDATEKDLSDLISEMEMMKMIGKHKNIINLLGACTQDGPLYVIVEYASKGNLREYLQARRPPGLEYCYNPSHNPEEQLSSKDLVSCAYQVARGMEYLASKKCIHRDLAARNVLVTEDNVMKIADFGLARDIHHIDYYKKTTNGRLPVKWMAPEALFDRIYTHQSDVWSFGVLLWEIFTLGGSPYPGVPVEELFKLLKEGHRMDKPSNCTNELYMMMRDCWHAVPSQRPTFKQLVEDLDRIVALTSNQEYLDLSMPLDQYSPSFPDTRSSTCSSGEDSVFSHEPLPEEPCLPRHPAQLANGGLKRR
IC50 [2],IC50 [4],Compound,Selectivity FGFR1/FGFR2 [1],Selectivity FGFR3/FGFR2 [3]
5 to 10 nM,10 to 50 nM,"C=C(F)C(=O)Nc1ccc(-n2nc3c(=O)[nH]nc(N)c3c2-c2ccc(C(=O)NC3CCC3)c(OC)c2)cc1 [Compound 137, 4-(4-amino-2-(4-(2-fluoroacrylamido)phe-nyl)-7-oxo-6,7-dihydro-2H-pyrazolo[3,4-d]pyridazin-3-yl)-N-cyclobutyl-2-methoxybenzamide]",A+ (Selectivity of FGFR1/FGFR2 greater or equal to 500),A+ (Selectivity of FGFR3/FGFR2 greater or equal to 150)
< 5 nM,≤ 10 nM,"C=CC(=O)Nc1ccc(-c2c(-c3ccc(C(=O)NC(C)C)c(OC)c3)c3c(N)ncc(C#N)c3n2C)cc1 [Compound 108, 4-(2-(4-acrylamidophenyl)-4-amino-7-cyano-1-methyl-1H-pyrrolo[3,2-c]pyridin-3-yl)-N-isopropyl-2-methoxybenzamide]",A+ (Selectivity of FGFR1/FGFR2 greater or equal to 500),A (Selectivity of FGFR3/FGFR2 less than 150 but greater than or equal to 100)
< 5 nM,≤ 10 nM,"C=CC(=O)Nc1ccc(-c2c(-c3ccc(C(=O)NCC(F)(F)F)c(OC)c3)c3c(N)ncc(C#N)c3n2C)c(F)c1 [Compound 150, 4-(2-(4-acrylamido-2-fluorophenyl)-4-amino-7-cyano-1-methyl-1H-pyrrolo[3,2-c]pyridin-3-yl)-2-methoxy-N-(2,2,2-trifluoroethyl)benzamide]",A+ (Selectivity of FGFR1/FGFR2 greater or equal to 500),B (Selectivity of FGFR3/FGFR2 less than 100 but greater than or equal to 25)
5 to 10 nM,≤ 10 nM,C=CC(=O)Nc1ccc(-c2c(-c3ccc(NC(=O)C4CC4)c(OC)c3)c3c(N)ncc(C#N)c3n2C)cc1 [Compound 237],B (Selectivity of FGFR1/FGFR2 less than 300 but greater than or equal to 200),A+ (Selectivity of FGFR3/FGFR2 greater or equal to 150)
< 5 nM,≤ 10 nM,"C=C(F)C(=O)Nc1ccc(-c2nn3ncnc(N)c3c2-c2ccc(Oc3cccc(C)n3)c(F)c2)c(C)c1 [Compound 439, N-(4-(4-amino-5-(3-fluoro-4-((6-methylpyridin-2-yl)oxy)phenyl)pyrazolo [5,1-f][1,2,4]triazin-6-yl)-3-methylphenyl)-2-fluoroacrylamide]",C (Selectivity of FGFR1/FGFR2 less than 200 but greater than or equal to 100),B (Selectivity of FGFR3/FGFR2 less than 100 but greater than or equal to 25)
< 5 nM,≤ 10 nM,"C=CC(=O)Nc1ccc(-c2c(-c3ccc(C(=O)NC4CC4)c(OC)c3)c3c(N)ncc(C#N)c3n2C)c(F)c1 [Compound 157, 4-(2-(4-acrylamido-2-fluorophenyl)-4-amino-7-cyano-1-methyl-1H-pyrrolo[3,2-c]pyridin-3-yl)-N-cyclopropyl-2-methoxybenzamide]",B (Selectivity of FGFR1/FGFR2 less than 300 but greater than or equal to 200),B (Selectivity of FGFR3/FGFR2 less than 100 but greater than or equal to 25)
< 5 nM,≤ 10 nM,"C=CC(=O)Nc1ccc(-c2nn3ncnc(N)c3c2-c2ccc(C(=O)NC3CC3)c(OC)c2)cc1 [Compound 89, 4-(6-(4-acrylamidophenyl)-4-aminopyrazolo[5,1-f] [1,2,4]triazin-5-yl)-N-cyclopropyl-2-methoxybenzamide]",A+ (Selectivity of FGFR1/FGFR2 greater or equal to 500),A+ (Selectivity of FGFR3/FGFR2 greater or equal to 150)
< 5 nM,≤ 10 nM,"C=CC(=O)Nc1ccc(-c2nn3ncnc(N)c3c2-c2ccc(C(=O)NC3CC3)c(OC)c2)c(OC)c1 [Compound 154, 4-(6-(4-acrylamido-2-methoxyphenyl)-4-aminopyrazolo[5,1-f][1,2,4]triazin-5-yl)-N-cyclopropyl-2-methoxybenzamide]",A+ (Selectivity of FGFR1/FGFR2 greater or equal to 500),A (Selectivity of FGFR3/FGFR2 less than 150 but greater than or equal to 100)
< 5 nM,≤ 10 nM,"C=C(F)C(=O)Nc1ccc(-c2nn3ncnc(N)c3c2-c2ccc(C(=O)NC34CC(F)(C3)C4)c(OC)c2)c(OC)c1 [Compound 416, 4-(4-amino-6-(4-(2-fluoroacrylamido)-2-methoxyphenyl)pyrazolo[5,1-f][1,2,4]triazin-5-yl)-N-(3-fluorobicyclo[1.1.1]pentan-1-yl)-2-methoxybenzamide]",B (Selectivity of FGFR1/FGFR2 less than 300 but greater than or equal to 200),B (Selectivity of FGFR3/FGFR2 less than 100 but greater than or equal to 25)
< 5 nM,≤ 10 nM,"C=CC(=O)Nc1ccc(-c2c(-c3ccc(C(=O)NC4CC(F)(F)C4)c(OC)c3)c3c(N)ncc(C#N)c3n2C)cc1 [Compound 188, 4-(2-(4-acrylamidophenyl)-4-amino-7-cyano-1-methyl-1H-pyrrolo[3,2-c]pyridin-3-yl)-N-(3,3-difluorocyclobutyl)-2-methoxybenzamide]",B (Selectivity of FGFR1/FGFR2 less than 300 but greater than or equal to 200),B (Selectivity of FGFR3/FGFR2 less than 100 but greater than or equal to 25)
< 5 nM,≤ 10 nM,C=CC(=O)Nc1ccc(-c2c(-c3ccc(C(=O)NCC(F)(F)F)c(OC)c3)c3c(N)ncc(C#N)c3n2C2CC2)cc1 [Compound 351],A+ (Selectivity of FGFR1/FGFR2 greater or equal to 500),B (Selectivity of FGFR3/FGFR2 less than 100 but greater than or equal to 25)
< 5 nM,≤ 10 nM,C=C(F)C(=O)Nc1ccc(-c2nn3ncnc(N)c3c2-c2ccc(C(=O)NC3(C(F)(F)F)CC3)c(OC)c2)c(F)c1 [Compound 356],A (Selectivity of FGFR1/FGFR2 less than 500 but greater than or equal to 300),A (Selectivity of FGFR3/FGFR2 less than 150 but greater than or equal to 100)
> 10 nM,10 to 50 nM,C=CC(=O)Nc1ccc(-c2nn3ncnc(N)c3c2-c2ccc(Oc3nccc(N)n3)c(F)c2)cc1 [Compound 428],A+ (Selectivity of FGFR1/FGFR2 greater or equal to 500),A+ (Selectivity of FGFR3/FGFR2 greater or equal to 150)
5 to 10 nM,≤ 10 nM,"C=CC(=O)Nc1ccc(-c2nn3ncnc(N)c3c2-c2ccc(Oc3nccc(NC)n3)c(F)c2)cc1 [Compound 433, N-(4-(4-amino-5-(3-fluoro-4-((4-(methylamino)pyrimidin-2-yl)oxy)phenyl)pyrazolo[5,1-f][1,2,4]triazin-6-yl)phenyl) acrylamide]",A+ (Selectivity of FGFR1/FGFR2 greater or equal to 500),A+ (Selectivity of FGFR3/FGFR2 greater or equal to 150)
< 5 nM,> 50 nM,"C=CC(=O)Nc1ccc(-n2nc3c(=O)[nH]nc(N)c3c2-c2ccc(Oc3nccc(C)n3)c(OC)c2)cc1 [Compound 134, N-(4-(4-amino-3-(3-methoxy-4-((4-methylpyrimidin-2-yl)oxy)phenyl)-7-oxo-6,7-dihydro-2H-pyrazolo[3,4-d]pyridazin-2-yl)phenyl)acrylamide]",C (Selectivity of FGFR1/FGFR2 less than 200 but greater than or equal to 100),A+ (Selectivity of FGFR3/FGFR2 greater or equal to 150)
5 to 10 nM,≤ 10 nM,C=C(C)C(=O)Nc1ccc(-c2nn3ncnc(N)c3c2-c2ccc(C(=O)NC3(C(F)(F)F)CC3)c(OC)c2)c(F)c1 [Compound 429],A+ (Selectivity of FGFR1/FGFR2 greater or equal to 500),A+ (Selectivity of FGFR3/FGFR2 greater or equal to 150)
> 10 nM,≤ 10 nM,"C=CC(=O)Nc1ccc(-c2nn3ncnc(N)c3c2-c2ccc(C(=O)C3CCCCC3)c(OC)c2)cc1 [Compound 431, N-(4-(4-amino-5-(4-(cyclohexanecarbonyl)-3-methoxyphenyl)pyrazolo[5,1-f][1,2,4]triazin-6-yl)phenyl) acrylamide]",A+ (Selectivity of FGFR1/FGFR2 greater or equal to 500),A+ (Selectivity of FGFR3/FGFR2 greater or equal to 150)
< 5 nM,≤ 10 nM,C=C(F)C(=O)Nc1ccc(-c2nn3ncnc(N)c3c2-c2ccc(C(=O)NCC3(C(F)(F)F)CC3)c(OC)c2)c(F)c1 [Compound 361],A (Selectivity of FGFR1/FGFR2 less than 500 but greater than or equal to 300),A (Selectivity of FGFR3/FGFR2 less than 150 but greater than or equal to 100)
> 10 nM,≤ 10 nM,"C=C(C)C(=O)Nc1ccc(-c2c(-c3ccc(Oc4nccc(C)n4)c(F)c3)c3c(N)ncc(C#N)c3n2C)c(C)c1 [Compound 501, N-(4-(4-amino-7-cyano-3-(3-fluoro-4-((4-methylpyrimidin-2-yl)oxy)phenyl)-1-methyl-1H-pyrrolo[3,2-c]pyridin-2-yl)-3-methylphenyl)methacrylamide]",A+ (Selectivity of FGFR1/FGFR2 greater or equal to 500),A+ (Selectivity of FGFR3/FGFR2 greater or equal to 150)
